We go through 13 compounds from patent US10590085B2, “Heterocyclic amides as kinase inhibitors” (GlaxoSmithKline Intellectual Property Development Limited, priority 2015, dated 2020).

The assay concerns human monocytic leukemia U937 cells. The assay is described as follows: necroptosis assay in U937 cells. In kind it is cell-based. The following applies: Homo sapiens, U-937, U937 cells; viability by cellular ATP (Cell Titer-Glo); read-out: mean pIC50, inhibition of necrosis in U937 cells (converted). The method, then:
The efficacy of RIP1 inhibitors can be tested […] in vitro using a human monocytic leukemia U937 or mouse L929 fibrosarcoma cells in a necroptosis assay. As determined using the method described in He, S. et al. 2009. Cell 137(6):1100-1111 and International Patent Appln. No. PCT/IB2014/059004, now, International Patent Appln. Pub.
Viability was measured by quantitating cellular levels of ATP using the Cell Titer-Glo kit. All data are means±standard deviation of the mean.
(In general: In ATP-based viability assays light output follows the ATP content of the culture.)
Regarding `O=C(C1CCN(c2ncccn2)CC1)N1N=CCC1c1ccccc1` (stereo not shown) [Example 171, (5-phenyl-4,5-dihydro-1H-pyrazol-1-yl)(1-(pyrimidin-2-yl)piperidin-4-yl)methanone], the IC50 is 1 to 100 nM.
For `O=C(c1cccs1)N1N=CCC1c1ccccc1` (stereo not shown) [Example 174, (5-phenyl-4,5-dihydro-1H-pyrazol-1-yl)(thiophen-2-yl)methanone 2,2,2-trifluoroacetate] the value was ~501 nM; for `Cn1cccc1C(=O)N1CCC(C(=O)N2N=CCC2c2ccccc2)CC1` (stereo not shown) [Example 175, (1-methyl-1H-pyrrol-2-yl)(4-(5-phenyl-4,5-dihydro-1H-pyrazole-1-carbonyl)piperidin-1-yl)methanone 2,2,2-trifluoroacetalc], 1 to 100 nM.
For `O=C(C1CCN(c2ccccn2)CC1)N1N=CCC1c1ccccc1` (stereo not shown) [Example 176, (5-phenyl-4,5-dihydro-1H-pyrazol-1-yl)(1-(pyridin-2-yl)piperidin-4-yl)methanonc 2,2,2-trifluoroacctate] the value was 1 to 100 nM.
Then `O=C(C1CCN(c2ccccn2)CC1)N1N=CC[C@H]1c1ccccc1` [Example 177, (S)-(5-phenyl-4,5-dihydro-1H-pyrazol-1-yl)(1-(pyridin-2-yl)piperidin-4-yl)methanone], with 1 to 100 nM.
For the compound `O=C(C1CCN(c2ccc(C(F)(F)F)cn2)CC1)N1N=CCC1c1ccccc1` (stereo not shown) [Example 179, (5-phenyl-4,5-dihydro-1H-pyrazol-1-yl)(1-(5-(trifluoromethyl)pyridin-2-yl)piperidin-4-yl)methanone 2,2,2-trifluoroacetate], the IC50 is 1 to 100 nM.
Then `O=C(C1CCN(c2nc3ccccc3o2)CC1)N1N=CCC1c1ccccc1` (stereo not shown) [Example 180, (1-(benzo[d]oxazol-2-yl)piperidin-4-yl)(5-phenyl-4,5-dihydro-1H-pyrazol-1-yl)methanone 2,2,2-trifluoroacetate], with 1 to 100 nM.
For the compound `O=C(C1CCN(c2ncc(F)cn2)CC1)N1N=CCC1c1ccc2c(c1)CCC2` (stereo not shown) [Example 184, (5-(2.3-dihydro-1H-inden-5-yl)-4,5-dihvdro-1H-pyrazol-1-yl)(1-(5-fluoropyrimidin-2-yl)piperidin-4-yl)methanone], the IC50 was 1 to 100 nM.
For `O=C(C1CCN(c2ncc(F)cn2)CC1)N1N=CCC1c1ccc(OC(F)F)cc1` (stereo not drawn) [Example 185, (5-(4-(difluoromethoxy)phenyl)-4,5-dihydro-1H-pyrazol-1-yl)(l-(5-fluoropyrimidin-2-yl)piperidin-4-yl)methanone], the IC50 is 1 to 100 nM.
On to `Cc1ccc(C2CC=NN2C(=O)C2CCN(c3ncc(F)cn3)CC2)cn1` (stereo not shown) [Example 187, (1-(5-fluoropyrimidin-2-yl)piperidin-4-yl)(5-(6-methylpyridin-3-yl)-4,5-dihydro-1H-pyrazol-1-yl)methanone], for which the IC50 is 1 to 100 nM.
Then `N#Cc1ccc(C2CC=NN2C(=O)C2CCN(c3ncc(F)cn3)CC2)cc1` (stereo not shown) [Example 188, 4-(1-(1-(5-fluoropyrimidin-2-yl)piperidine-4-carbonyl)-4,5-dihydro-1H-pyrazol-5-yl)benzonitrile], with 1 to 100 nM.
For `CC1(C(=O)N2N=CCC2c2ccccc2)CCN(c2ncc(F)cn2)CC1` (stereo not shown) [Example 190, (1-(5-fluoropyrimidin-2-yl)-4-methylpiperidin-4-yl)(5-phenyl-4,5-dihydro-1H-pyrazol-1-yl)methanone] the value was 1 to 100 nM; for `O=C(c1cccnc1)N1N=CCC1c1ccccc1` (stereo not shown) [Example 209], ~2000 nM.
